From patent US20030083202A1, “Roots-inducing agent of plants and its treatment method” (priority 2001, published 2003)

Experiments:
[1] = test system: cut stems of chrysanthemums; assay: Roots-inducing and fixation-stimulating actions in cut stems of chrysanthemums (leaf spray); assay type: in vivo; set-up: Index for roots-induction, Total indexes: scale not given here; settings: 50th day; for Index for roots-induction, cutting 1 / Index for roots-induction, cutting 2 / Index for roots-induction, cutting 3 / Index for roots-induction, cutting 4 / Index for roots-induction, cutting 5 / Index for roots-induction, cutting 6 / Index for roots-induction, cutting 7 / Index for roots-induction, cutting 8: 5 ppm water solution sprayed once onto leaves, 8 cuttings; for Index for roots-induction, Total indexes: sum of the indexes of 8 cuttings, 5 ppm spray, non-treatment 7
Excerpt: Stems of chrysanthemums were cut out by 5 cm from the part at 5-10 cm from the top to prepare cuttings with 2 leaves. The water solution of the tested compound (5 ppm) was sprayed once in a misty manner through an mascot spray onto the surface of leaves so that the surface got wet uniformly for each 8 cuttings. The cuttings in the pots were grew in a cabinet where the temperature was controlled in the range of 15 (C at lowest at night to 30 (C at highest in the daytime. Water was supplied appropriately according to the extent of dryness of soil during the cultivation of plants.
On the 50th day after the tested compound was sprayed, roots-induction of each cutting was checked by diggings up, and its extent was shown as an index for each rank.

[2] = test system: cuttings of violets without roots; assay: Roots-inducing and fixation-stimulating actions in cuttings of violets (leaf spray); assay type: in vivo
Procedure: Seedlings of violets were used in the experiment. The lower part of the seedlings of violets was cut and cuttings of violets without roots were prepared. Each cutting of violets was planted into cultivation soil in a plug tray and supplied water sufficiently.
The plug trays were lined up on the working stand in a green house where the temperature was controlled at 25-33 (C. The water solution of 4-chloroindole-3-acetic acid (20 ppm) was sprayed in a misty manner through an atomizer onto the surface of leaves so that the surface got wet uniformly (once).
Then, the plants were grew for 38 days with 1-2 times water supply every other day, and numbers of the cuttings with and without roots-induction and of the dead cuttings. In the control, the cuttings were sprayed only water instead of 4-chloroindole-3-acetic acid solution and grew under the same conditions as those described above.

[3] = 20 ppm water solution sprayed once onto leaves, after 38 days, of 93 cuttings

CCC(C)OC(=O)Cc1c[nH]c2cccc(Cl)c12 (racemic) [4-Cl-IAA 2-Bu]
Index for roots-induction, cutting 1 [1]: 2 (The cuttings with 10-19 roots per a cutting) | Index for roots-induction, cutting 2 [1]: 2 (The cuttings with 10-19 roots per a cutting) | Index for roots-induction, cutting 3 [1]: 2 (The cuttings with 10-19 roots per a cutting) | Index for roots-induction, cutting 4 [1]: 2 (The cuttings with 10-19 roots per a cutting) | Index for roots-induction, cutting 5 [1]: 1 (The cuttings with 5-9 roots per a cutting) | Index for roots-induction, cutting 6 [1]: 1 (The cuttings with 5-9 roots per a cutting) | Index for roots-induction, cutting 7 [1]: 0 (The cuttings with less than 4 roots (including no roots)) | Index for roots-induction, cutting 8 [1]: 0 (The cuttings with less than 4 roots (including no roots)) | Index for roots-induction, Total indexes [1]: 10

CCCCOC(=O)Cc1c[nH]c2cccc(Cl)c12 [4-Cl-IAA 1-Bu]
Index for roots-induction, cutting 1 [1]: 2 (The cuttings with 10-19 roots per a cutting) | Index for roots-induction, cutting 2 [1]: 2 (The cuttings with 10-19 roots per a cutting) | Index for roots-induction, cutting 3 [1]: 2 (The cuttings with 10-19 roots per a cutting) | Index for roots-induction, cutting 4 [1]: 2 (The cuttings with 10-19 roots per a cutting) | Index for roots-induction, cutting 5 [1]: 1 (The cuttings with 5-9 roots per a cutting) | Index for roots-induction, cutting 6 [1]: 1 (The cuttings with 5-9 roots per a cutting) | Index for roots-induction, cutting 7 [1]: 0 (The cuttings with less than 4 roots (including no roots)) | Index for roots-induction, cutting 8 [1]: 0 (The cuttings with less than 4 roots (including no roots)) | Index for roots-induction, Total indexes [1]: 10

CC(C)OC(=O)Cc1c[nH]c2cccc(Cl)c12 [4-Cl-IAA 2-Pr]
Index for roots-induction, cutting 1 [1]: 2 (The cuttings with 10-19 roots per a cutting) | Index for roots-induction, cutting 2 [1]: 2 (The cuttings with 10-19 roots per a cutting) | Index for roots-induction, cutting 3 [1]: 2 (The cuttings with 10-19 roots per a cutting) | Index for roots-induction, cutting 4 [1]: 2 (The cuttings with 10-19 roots per a cutting) | Index for roots-induction, cutting 5 [1]: 2 (The cuttings with 10-19 roots per a cutting) | Index for roots-induction, cutting 6 [1]: 1 (The cuttings with 5-9 roots per a cutting) | Index for roots-induction, cutting 7 [1]: 0 (The cuttings with less than 4 roots (including no roots)) | Index for roots-induction, cutting 8 [1]: 0 (The cuttings with less than 4 roots (including no roots)) | Index for roots-induction, Total indexes [1]: 11

C=CCOC(=O)Cc1c[nH]c2cccc(Cl)c12 [4-Cl-IAA Ally]
Index for roots-induction, cutting 1 [1]: 3 (The cuttings with 20 or more roots per a cutting) | Index for roots-induction, cutting 2 [1]: 3 (The cuttings with 20 or more roots per a cutting) | Index for roots-induction, cutting 3 [1]: 2 (The cuttings with 10-19 roots per a cutting) | Index for roots-induction, cutting 4 [1]: 2 (The cuttings with 10-19 roots per a cutting) | Index for roots-induction, cutting 5 [1]: 2 (The cuttings with 10-19 roots per a cutting) | Index for roots-induction, cutting 6 [1]: 1 (The cuttings with 5-9 roots per a cutting) | Index for roots-induction, cutting 7 [1]: 1 (The cuttings with 5-9 roots per a cutting) | Index for roots-induction, cutting 8 [1]: 0 (The cuttings with less than 4 roots (including no roots)) | Index for roots-induction, Total indexes [1]: 14

CCOC(=O)Cc1c[nH]c2cccc(Cl)c12 [4-Cl-IAA Et]
Index for roots-induction, cutting 1 [1]: 3 (The cuttings with 20 or more roots per a cutting) | Index for roots-induction, cutting 2 [1]: 3 (The cuttings with 20 or more roots per a cutting) | Index for roots-induction, cutting 3 [1]: 3 (The cuttings with 20 or more roots per a cutting) | Index for roots-induction, cutting 4 [1]: 3 (The cuttings with 20 or more roots per a cutting) | Index for roots-induction, cutting 5 [1]: 3 (The cuttings with 20 or more roots per a cutting) | Index for roots-induction, cutting 6 [1]: 2 (The cuttings with 10-19 roots per a cutting) | Index for roots-induction, cutting 7 [1]: 1 (The cuttings with 5-9 roots per a cutting) | Index for roots-induction, cutting 8 [1]: 0 (The cuttings with less than 4 roots (including no roots)) | Index for roots-induction, Total indexes [1]: 18

CCCOC(=O)Cc1c[nH]c2cccc(Cl)c12 [4-Cl-IAA I-Pr]
Index for roots-induction, cutting 1 [1]: 3 (The cuttings with 20 or more roots per a cutting) | Index for roots-induction, cutting 2 [1]: 3 (The cuttings with 20 or more roots per a cutting) | Index for roots-induction, cutting 3 [1]: 2 (The cuttings with 10-19 roots per a cutting) | Index for roots-induction, cutting 4 [1]: 2 (The cuttings with 10-19 roots per a cutting) | Index for roots-induction, cutting 5 [1]: 2 (The cuttings with 10-19 roots per a cutting) | Index for roots-induction, cutting 6 [1]: 2 (The cuttings with 10-19 roots per a cutting) | Index for roots-induction, cutting 7 [1]: 1 (The cuttings with 5-9 roots per a cutting) | Index for roots-induction, cutting 8 [1]: 1 (The cuttings with 5-9 roots per a cutting) | Index for roots-induction, Total indexes [1]: 16

COC(=O)Cc1c[nH]c2cccc(Cl)c12 [4-Cl-IAA Me]
Index for roots-induction, cutting 1 [1]: 3 (The cuttings with 20 or more roots per a cutting) | Index for roots-induction, cutting 2 [1]: 3 (The cuttings with 20 or more roots per a cutting) | Index for roots-induction, cutting 3 [1]: 3 (The cuttings with 20 or more roots per a cutting) | Index for roots-induction, cutting 4 [1]: 2 (The cuttings with 10-19 roots per a cutting) | Index for roots-induction, cutting 5 [1]: 2 (The cuttings with 10-19 roots per a cutting) | Index for roots-induction, cutting 6 [1]: 2 (The cuttings with 10-19 roots per a cutting) | Index for roots-induction, cutting 7 [1]: 0 (The cuttings with less than 4 roots (including no roots)) | Index for roots-induction, cutting 8 [1]: 0 (The cuttings with less than 4 roots (including no roots)) | Index for roots-induction, Total indexes [1]: 15

CC(C)COC(=O)Cc1c[nH]c2cccc(Cl)c12 [4-Cl-IAA isoBu]
Index for roots-induction, cutting 1 [1]: 2 (The cuttings with 10-19 roots per a cutting) | Index for roots-induction, cutting 2 [1]: 2 (The cuttings with 10-19 roots per a cutting) | Index for roots-induction, cutting 3 [1]: 2 (The cuttings with 10-19 roots per a cutting) | Index for roots-induction, cutting 4 [1]: 1 (The cuttings with 5-9 roots per a cutting) | Index for roots-induction, cutting 5 [1]: 1 (The cuttings with 5-9 roots per a cutting) | Index for roots-induction, cutting 6 [1]: 0 (The cuttings with less than 4 roots (including no roots)) | Index for roots-induction, cutting 7 [1]: 0 (The cuttings with less than 4 roots (including no roots)) | Index for roots-induction, cutting 8 [1]: 0 (The cuttings with less than 4 roots (including no roots)) | Index for roots-induction, Total indexes [1]: 8

CCCCCOC(=O)Cc1c[nH]c2cccc(Cl)c12 [4-Cl-IAA pentyl]
Index for roots-induction, cutting 1 [1]: 2 (The cuttings with 10-19 roots per a cutting) | Index for roots-induction, cutting 2 [1]: 2 (The cuttings with 10-19 roots per a cutting) | Index for roots-induction, cutting 3 [1]: 2 (The cuttings with 10-19 roots per a cutting) | Index for roots-induction, cutting 4 [1]: 2 (The cuttings with 10-19 roots per a cutting) | Index for roots-induction, cutting 5 [1]: 1 (The cuttings with 5-9 roots per a cutting) | Index for roots-induction, cutting 6 [1]: 1 (The cuttings with 5-9 roots per a cutting) | Index for roots-induction, cutting 7 [1]: 0 (The cuttings with less than 4 roots (including no roots)) | Index for roots-induction, cutting 8 [1]: 0 (The cuttings with less than 4 roots (including no roots)) | Index for roots-induction, Total indexes [1]: 10

O=C(O)Cc1c[nH]c2cccc(Cl)c12 [4-Cl-IAA, 4-chloroindole-3-acetic acid]
Roots-inducing and fixation-stimulating actions (in words) ([2]; 20 ppm spray, versus water control): extremely prominent | Time at which roots-induction was observed ([2]; 20 ppm spray, roots checked by digging up at random, no statistical analysis, control only after 7 days): around 3 days | Cuttings with roots-induction (number of cuttings) [2, 3]: 74 | Cuttings without roots-induction (%) [2, 3]: (6) % | Cuttings without roots-induction (number of cuttings) [2, 3]: 6 | Dead cuttings (%) [2, 3]: (14) % | Dead cuttings (number of cuttings) [2, 3]: 13 | Cuttings with roots-induction (%) ([2]; 20 ppm water solution sprayed once onto leaves, after 38 days, of 93 cuttings, listed as 4-Cl-iAA): (80) % | Cuttings with roots-induction (%) ([2]; 20 ppm water solution sprayed once onto leaves, after 38 days, of 93 cuttings, listed as 4-chloroindole-3-acetic acid): 80% | Index for roots-induction, cutting 1 [1]: 3 (The cuttings with 20 or more roots per a cutting) | Index for roots-induction, cutting 2 [1]: 2 (The cuttings with 10-19 roots per a cutting) | Index for roots-induction, cutting 3 [1]: 2 (The cuttings with 10-19 roots per a cutting) | Index for roots-induction, cutting 4 [1]: 2 (The cuttings with 10-19 roots per a cutting) | Index for roots-induction, cutting 5 [1]: 2 (The cuttings with 10-19 roots per a cutting) | Index for roots-induction, cutting 6 [1]: 2 (The cuttings with 10-19 roots per a cutting) | Index for roots-induction, cutting 7 [1]: 0 (The cuttings with less than 4 roots (including no roots)) | Index for roots-induction, cutting 8 [1]: 0 (The cuttings with less than 4 roots (including no roots)) | Index for roots-induction, Total indexes [1]: 13
